Assay results published in patent publication US8859796B1, “Synthetic and purification methods for phosphaplatin compounds and uses thereof” (Phosplatin Therapeutics LLC, priority 2012, dated 2014).

What was measured:
[1] = Long-term stability study of the recrystallized (R,R)-DACH-2 sample; format: physicochemical; settings: not exceeding 25° C., humidity 60±5%
Description: A long-term stability study of the recrystallized sample was conducted.

[2] = Stability of saturated aqueous solutions of (R,R)-DACH-2 at pH 2, composition by HPLC; format: physicochemical
Description: The resultant suspension was stirred for 30 min and the pH adjusted to 2 with 0.1M nitric acid. The solution was filtered through a 0.45 micron Whatman polypropylene filter to afford a clear solution. Samples of the solution were stored at 25° C. and 5° C. At the time intervals shown in Tables 2 and 3 the solution composition was determined by HPLC.

[3] = after 14 months, initial 0.01% (wt/wt)
[4] = aqueous solution, pH 2, 5° C., 0.1 h
[5] = aqueous solution, pH 2, 5° C., 2 h
[6] = aqueous solution, pH 2, 5° C., 4 h
[7] = aqueous solution, pH 2, 5° C., 8 h
[8] = aqueous solution, pH 2, 5° C., 16 h
[9] = aqueous solution, pH 2, 5° C., 24 h
[10] = aqueous solution, pH 2, 5° C., 48 h
[11] = aqueous solution, pH 2, 25° C., 0.1 h
[12] = aqueous solution, pH 2, 25° C., 2 h
[13] = aqueous solution, pH 2, 25° C., 4 h
[14] = aqueous solution, pH 2, 25° C., 8 h
[15] = aqueous solution, pH 2, 25° C., 16 h
[16] = aqueous solution, pH 2, 25° C., 24 h
[17] = aqueous solution, pH 2, 25° C., 48 h

## NC1CCCCC1N.O=P([O-])([O-])OP(=O)(O)O.[Pt+2] [(R,R)-DACH-2, cyclohexanediamine (pyrophosphato)platinum (II)]
[1]; after 14 months, HDPE bottle, initial 99.4% w/w
  (R,R)-DACH-2 purity on re-testing: 98.4 % (wt/wt)
[1]; [3]
  chloride content on re-testing: 0.01% (wt/wt)
  nitrate content on re-testing: 0.01% (wt/wt)
[1]; after 14 months, initial 0.17% (wt/wt)
  pyrophosphate content on re-testing: 0.17% (wt/wt)
[1]; after 14 months, initial not detected
  DACH-Pt—Cl2 content on re-testing: not detected
[1]; purified solid, 14 months
  Long-term stability, conclusion in words: stable
[2]; [4]
  (R,R)-DACH-2: 12.8 HPLC Area %
  (R,R)-DACH-2 concentration: 0.1 mg/mL
  (R,R)-DACH-2 dimer: 16.8 HPLC Area %
  (R,R-DACH-2 water adduct): 2.5 HPLC Area %
  Pt-DACH-diaquo: 68.3 HPLC Area %
[2]; [5]
  (R,R)-DACH-2: 11.7 HPLC Area %
  (R,R)-DACH-2 concentration: 2 mg/mL
  (R,R)-DACH-2 dimer: 24.2 HPLC Area %
  (R,R-DACH-2 water adduct): 2.22 HPLC Area %
  Pt-DACH-diaquo: 60.9 HPLC Area %
[2]; [6]
  (R,R)-DACH-2: 10.6 HPLC Area %
  (R,R)-DACH-2 concentration: 4 mg/mL
  (R,R)-DACH-2 dimer: 29.2 HPLC Area %
  (R,R-DACH-2 water adduct): 2.02 HPLC Area %
  Pt-DACH-diaquo: 57.2 HPLC Area %
[2]; [7]
  (R,R)-DACH-2: 9.6 HPLC Area %
  (R,R)-DACH-2 concentration: 8 mg/mL
  (R,R)-DACH-2 dimer: 33.5 HPLC Area %
  (R,R-DACH-2 water adduct): 1.81 HPLC Area %
  Pt-DACH-diaquo: 53.6 HPLC Area %
[2]; [8]
  (R,R)-DACH-2: 9.3 HPLC Area %
  (R,R)-DACH-2 concentration: 16 mg/mL
  (R,R)-DACH-2 dimer: 35.1 HPLC Area %
  (R,R-DACH-2 water adduct): 1.63 HPLC Area %
  Pt-DACH-diaquo: 52.5 HPLC Area %
[2]; [9]
  (R,R)-DACH-2: 9.4 HPLC Area %
  (R,R)-DACH-2 concentration: 24 mg/mL
  (R,R)-DACH-2 dimer: 36.2 HPLC Area %
  (R,R-DACH-2 water adduct): 1.43 HPLC Area %
  Pt-DACH-diaquo: 51.5 HPLC Area %
[2]; [10]
  (R,R)-DACH-2: 9.3 HPLC Area %
  (R,R)-DACH-2 concentration: 48 mg/mL
  (R,R)-DACH-2 dimer: 34.7 HPLC Area %
  (R,R-DACH-2 water adduct): 1.27 HPLC Area %
  Pt-DACH-diaquo: 53.8 HPLC Area %
[2]; [11]
  (R,R)-DACH-2: 67.1 HPLC Area %
  (R,R)-DACH-2 concentration: 2.38 mg/mL
  (R,R)-DACH-2 dimer: 2.9 HPLC Area %
  (R,R-DACH-2 water adduct): 13.3 HPLC Area %
  Pt-DACH-diaquo: 16.7 HPLC Area %
[2]; [12]
  (R,R)-DACH-2: 50.6 HPLC Area %
  (R,R)-DACH-2 concentration: 1.75 mg/mL
  (R,R)-DACH-2 dimer: 14.3 HPLC Area %
  (R,R-DACH-2 water adduct): 9.3 HPLC Area %
  Pt-DACH-diaquo: 25.8 HPLC Area %
[2]; [13]
  (R,R)-DACH-2: 48.7 HPLC Area %
  (R,R)-DACH-2 concentration: 1.59 mg/mL
  (R,R)-DACH-2 dimer: 17.4 HPLC Area %
  (R,R-DACH-2 water adduct): 9.2 HPLC Area %
  Pt-DACH-diaquo: 24.8 HPLC Area %
[2]; [14]
  (R,R)-DACH-2: 51.6 HPLC Area %
  (R,R)-DACH-2 concentration: 1.41 mg/mL
  (R,R)-DACH-2 dimer: 13.4 HPLC Area %
  (R,R-DACH-2 water adduct): 9.5 HPLC Area %
  Pt-DACH-diaquo: 25.5 HPLC Area %
[2]; [15]
  (R,R)-DACH-2: 56.5 HPLC Area %
  (R,R)-DACH-2 concentration: 1.04 mg/mL
  (R,R)-DACH-2 dimer: 8.1 HPLC Area %
  (R,R-DACH-2 water adduct): 9.8 HPLC Area %
  Pt-DACH-diaquo: 25.6 HPLC Area %
[2]; [16]
  (R,R)-DACH-2: 57.6 HPLC Area %
  (R,R)-DACH-2 concentration: 0.88 mg/mL
  (R,R)-DACH-2 dimer: 7 HPLC Area %
  (R,R-DACH-2 water adduct): 10.1 HPLC Area %
  Pt-DACH-diaquo: 25.3 HPLC Area %
[2]; [17]
  (R,R)-DACH-2: 59.5 HPLC Area %
  (R,R)-DACH-2 concentration: 0.62 mg/mL
  (R,R)-DACH-2 dimer: 5.5 HPLC Area %
  (R,R-DACH-2 water adduct): 9.3 HPLC Area %
  Pt-DACH-diaquo: 25.9 HPLC Area %
[2]; aqueous solution, pH 2, as temperature is reduced (25° C. to 5° C.)
  Degradation rate, conclusion in words: significantly reduced
[2]; saturated aqueous solution, pH 2
  Stability in aqueous solution, conclusion in words: readily suffers hydrolytic degradation
